PubChem BioAssay (NCI)
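96-well plates; 48 h exposure; 5 concentrations. Endpoints by linear interpolation between flanking doses. Not reached: highest tested concentration assigned. The concentration for 50% growth inhibition is given as GI50. TGI denotes the concentration required for complete inhibition of growth.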

Assays:
Experiment in all cases: NCI-60 cell line screen, 48 h
T-47D breast = test system: T-47D breast
BT-549 breast = test system: BT-549 breast
MDA-MB-435 = test system: MDA-MB-435
HS 578T breast = test system: HS 578T breast
MDA-N = test system: MDA-N

| Structure (SMILES) | GI50 (T-47D breast) [µM] | TGI (T-47D breast) [µM] | GI50 (BT-549 breast) [µM] | TGI (BT-549 breast) [µM] | GI50 (MDA-MB-435) [µM] | TGI (MDA-MB-435) [µM] | GI50 (HS 578T breast) [µM] | TGI (HS 578T breast) [µM] | TGI (MDA-N) [µM] |
| --- | --- | --- | --- | --- | --- | --- | --- | --- | --- |
| NCCOCCOCCNc1nc(Cc2ccccc2)nc(NCCCN2CCCC2=O)n1 | > 100 | > 100 | > 100 | > 100 | > 100 | > 100 | > 100 | > 100 |  |
| CCCCCCCCCCC(C(=O)O)C1(C(=O)O)CCC(=O)O1 (stereo not drawn) |  | > 100 |  | > 100 |  | > 100 |  | > 100 | > 100 |
| Cn1cccc1-c1cc(-c2cccs2)nc(N)c1C#N | > 100 | > 100 | > 100 | > 100 | > 100 | > 100 | > 100 | > 100 |  |
| O=C(O)/C=C\C(=O)N1C/C(=C\c2ccccc2Cl)C(=O)/C(=C/c2ccccc2Cl)C1 | 4.48 | 16.2 | 2.06 | 4.11 | 3.34 | 13.6 |  |  |  |
| NCCn1c(=O)[nH]c(=O)[nH]c1=S | > 100 | > 100 | > 100 | > 100 | > 100 | > 100 | > 100 | > 100 |  |
| O=c1cc(-c2ccccc2)[nH]c2ccccc12 | 0.468 | > 100 |  | > 52.1 |  |  | 0.458 | > 23.2 |  |
| COc1ccc2c(c1)cn1c3ccc(O)cc3nc(N)c21 | 2.34 | 10.4 | 4.72 | 22.7 | 0.0217 | 0.0749 | 1.48 | 33.4 |  |
| Cc1cc(N(CCCl)CCCl)ccc1C=Nc1ccc(-c2csc(Cc3ccccc3)n2)cc1 | 2.82 | 49.2 | 13.4 | 42.4 | 12.4 | 39.9 | 20.3 | 83.7 |  |
| COc1ccc(-c2ccc(/C=N/n3c(COc4ccc(Cl)cc4Cl)nn(CN4CCOCC4)c3=S)o2)c([N+](=O)[O-])c1 | 38.6 | > 100 | 13.2 | 44.6 | 18.6 | 51.5 |  |  |  |
| COc1ccc(/C=C2\CCCC3=C2N=C2SC(C)=NN2C3c2ccc(OC)c(OC)c2)cc1OC (stereo not drawn) | 4.57 | > 100 | 7.37 | > 100 | 3.27 | 69.3 | 30.4 | > 100 |  |
| COc1ccc2sc3c(NCCCN(C)C)nc4ccccc4c3c(=O)c2c1 | 1.86 | 4.24 | 5.24 | 18.1 | 1.59 | 2.98 | 1.49 | 3.26 |  |
| CCCC(C)c1cc(Cc2cc(Cl)cc(Cl)c2O)c(O)c(Cc2cc(Cl)cc(Cl)c2O)c1 (stereo not drawn) | 0.809 | 6.77 | 1.33 | 5.2 | 2.31 | 10.3 | 0.836 | 8.32 |  |
| CC1(C)CC(=O)c2c(C(F)(F)F)nn(-c3ccc(C(N)=O)c(NC4CCC(OC(=O)CN)CC4)c3)c2C1 (stereo not drawn) | 0.0461 | > 100 | 5.24 | 41.7 | 0.0418 | > 47.3 | 9.73 | > 100 |  |
| CC#C[C@]1(O)CC[C@H]2[C@@H]3CCC4=CC(=O)CCC4=C3[C@@H](c3ccc4c(c3)OCO4)C[C@@]21C | 45.6 | 577 | 22.3 | 122 | 106 | 390 | 101 | 537 |  |
| COc1ccc(OC)c(/C=C2\SC(=S)NC2=O)c1 | 18.6 | 56.7 |  |  | 39 | > 100 | 20.7 | 55.5 |  |
| CN(C)CCNc1c2c(c(NCCN(C)C)c3[nH]ccc13)C(=O)c1ccccc1C2=O | 2.87 | > 21.2 | 1.08 | 3.04 | 1.54 | 5.14 | 2.74 | 9.26 |  |
| N#Cc1c(N2CCCC2)[nH]c(=O)c(C(c2c(Cl)cccc2Cl)c2c(O)c(C#N)c(N3CCCC3)[nH]c2=O)c1O | 3.13 | 13.4 | 2.3 | 6.25 | 9.6 | 25.2 | 2.75 | 19.1 |  |
| COc1cc(/C=C/c2cc(O)c3cc(C(C)=O)c(=O)oc3c2)cc2c1O[C@]1(C)CC[C@@H](O)C(C)(C)[C@H]1C2 | > 23.8 | > 53.9 |  | > 61.2 | > 20.1 | > 45.7 |  |  |  |
| COc1ccc(-c2n/c(=C\c3c(O)[nH]c4ccc(OC)cc34)cc3c2=Nc2ccccc2-3)cc1 | 11.8 | 40.5 |  |  |  |  | 1.94 | 4.82 |  |
